# Results as given in patent EP0060954A1, “Derivatives of fluorophenacyl amines and their therapeutic use” (LABORATOIRE L. LAFON Société anonyme dite:, priority 1981, dated 1982).
# Several values for one entry are separate records, joined by “and”; a condition that tells them apart may be missing. Equal values may be shown once.
# Assays:
# [1] = system: souris; assay: Toxicity: maximal non-lethal dose DL-0, intraperitoneal; assay type: in vivo; settings: mouse, i.p.
# Procedure: La dose maximale non mortelle, DL-0, est supérieure à 128 mg/kg et inférieure à 256 mg/kg, chez la souris, par voie I.P. 2°) - Action sur le SNC
# (§1) Le CRL 40827, en solution dans de l'eau distillée, a été administré par voie intrapéritonéale sous un volume de 20 ml/kg chez la souris mâle et un volume de 5 ml/kg chez le rat mâle. 1°) - Toxicité
# La dose maximale non mortelle, DL-0, est supérieure à 64 mg/kg et inférieure à 128 mg/kg chez la souris mâle.
# Le CRL 40854, en solution dans de l'eau distillée, a été administré par voie intrapéritonéale sous un volume de 20 ml/kg chez la souris màle et de 5 ml/kg chez le rat màle.
# La dose maximale non mortelle DL-0 est supérieure à 128 mg/kg et inférieure à 256 mg/kg chez la souris.
# [2] = system: souris; assay: CNS action of CRL 40727: sedative-type effects in the mouse; assay type: in vivo
# [3] = CNS action of CRL 40727: hypothermia and amphetamine stereotypies (species not given); settings: in vivo
# [4] = system: chiens; assay: Cardiovascular action, intravenous perfusion in dogs; assay type: in vivo, chien; settings: for minimal effective dose: Canis lupus familiaris, iv
# Procedure: Deux chiens reçoivent le CRL 40727 par voie intraveineuse, en perfusion de 6 min, aux doses successives de 0,1 mg/kg, 1 mg/kg, 2,5 mg/kg, 5 mg/kg, 10 mg/kg et 20 mg/kg. On messure leur pression artérielle, leur fréquence cardiaque, leur débit fémoral, leur température rectale.
# [5] = system: chiens; assay: Cardiovascular action, intraduodenal route in dogs; assay type: in vivo, chien
# Procedure: Trois chiens reçoivent le CRL 40727 par voie intraduodénale aux doses successives de 1 mg/kg, 2,5 mg/kg, 5 mg/kg et 10 mg/kg. On mesure les mêmes paramètres que ci-dessus. On observe ce qui suit.
# [6] = system: souris; assay: Interaction with apomorphine, mouse; assay type: in vivo
# Procedure: as §1
# Des lots de 6 souris reçoivent le CRL 40827 30 min avant l'injection sous-cutanée d'apomorphine à la dose de 1 ou 16 mg/kg.
# (§2) En procédant selon les modalités opératoires données ci-dessus pour le CRL 40827, on observe ce qui suit.
# [7] = system: homme; assay: Clinical use as sedative and antidepressant agents; assay type: in vivo; settings: for résultats en tant qu'agents antidépresseurs chez l'homme: tablets or capsules of 5 mg, 3 per day
# [8] = system: souris mâles; assay: Intergroup aggressiveness test (number of fights after removal of the partition); assay type: in vivo; settings: mouse; dose not given
# Source text: Des essais comparatifs ont été entrepris pour mettre en évidence quels sont les effets chez l'animal qui permettent de distinguer les produits selon l'invention de leurs homologues fluorés connus. Parmi ces essais, on a résumé ceux concernant les propriétés antiagressives. Plus précisément, on a évalué la diminution de l'agressivité intergroupes selon la technique suivante : a.près avoir séjourné pendant 3 semaines de part et d'autre d'une cloison opaque séparant leur cage par le milieu, des groupes de trois souris mâles de 20 g chacune environ reçoivent, par voie intrapéritonéale, les produits à tester en solution dans de l'eau distillée, les animaux témoins ne recevant que de l'eau distillée par voie intrapéritonéale. Une demi-heure plus tard, les deux groupes d'une même cage sont réunis par retrait de la cloison opaque et on note le nombre de combats qui surviennent en 10 min. On a utilisé trois cages pour chaque produit à tester et six cages pour le lot témoin ne recevant pas les produits à tester.
# Les résultats du tableau I ci-après donnent la diminution de l'agressivité intergroupes par rapport au lot témoin, tous les produits à tester étant administrés à la dose de 8 mg/kg par voie intrapéritonéale. […]
# [9] = system: rat; assay: Interaction with apomorphine, rat; assay type: in vivo; settings: i.p. 30 min before apomorphine 0,5 mg/kg s.c.
# Procedure: as §1
# Le CRL 40 827 est administré à des lots de 6 rats 30 min avant l'injection sous-cutanée de 0,5 mg/kg d'apomorphine.
# as §2
# [10] = system: rats; assay: Interaction with amphetamine (stereotypies); assay type: in vivo, rat; settings: 8 and 32 mg/kg
# Procedure: L'amphétamine (2 mg/kg) est injectée par voie intrapéritonéale à des lots de 6 rats, 30 min après l'administration de CRL 40827. […] Interaction avec la réserpine
# as §2
# [11] = system: souris; assay: Interaction with reserpine (hypothermia, ptosis); assay type: in vivo; settings: mouse
# Procedure: Quatre heures après l'injection intrapéritonéale de 2,5 mg/kg de réserpine, des lots de 6 souris reçoivent le CRL 40827.
# as §2
# [12] = system: souris; assay: Interaction with oxotremorine; assay type: in vivo; settings: mouse
# Procedure: Le CRL 40827 est administré à des lots de 6 souris 30 min avant l'injection intrapéritonéale de 0,5 mg/kg d'oxotrémo- rine. On observe que, dès la dose de 0,5 mg/kg, le CRL 40827 antagonise l'action hypothermisante de l'oxotrémorine; cet effet est très net à 32 mg/kg.
# as §2
# [13] = system: souris; assay: Four-plate test, traction and electroshock; assay type: in vivo; settings: mouse, 30 min after dosing
# Procedure: Le test est pratiqué sur des lots de 10 souris, 30 min après l'administration de CRL 40827.
# as §2
# [14] = system: souris; assay: Spontaneous motility (actimeter); assay type: in vivo; settings: mouse; high dose 64 mg/kg
# Procedure: Une demi-heure après avoir reçu le CRL 40827, les souris (6 par dose, 12 témoins) sont placées en actimètre où leur motilité est enregistrée pendant 30 min.
# as §2
# [15] = system: souris; assay: Motility reduced by habituation to the enclosure; assay type: in vivo; settings: mouse
# Procedure: Après 18 h de séjour dans les actimètres, les souris (6 par dose, 12 témoins) reçoivent le CRL 40827. Elles sont aussitôt replacées dans leurs enceintes respectives et, 30 min plus tard, on enregistre leur motilité pendant 30 min.
# as §2
# [16] = system: souris; assay: Motility reduced by hypoxic aggression (acute hypobaric anoxia); assay type: in vivo; settings: mouse
# Procedure: Une demi-heure après avoir reçu le CRL 40827, les souris (10 par dose, 20 témoins) sont soumises à une anoxie hypobare aiguë (dépression de 8 x 10^4 Pa en 90 s, détente de 45 s), puis elles sont placées en actimètre où leur motilité est enregistrée pendant 10 min.
# as §2
# [17] = system: souris; assay: Asphyxic anoxia (gallamine triethiodide); assay type: in vivo; settings: mouse
# Procedure: Des lots de 10 souris reçoivent le CRL 40827 30 min avant l'administration intrapéritonéale d: 34 mg/kg de triiodoéthy- late de gallamine. A la plus forte dose (34 mg/kg),le CRL 40827 empêche l'apparition des convulsions et de la mort chez 40% des animaux.
# as §2
smiles,measurement,setting,value
"CC(C)NCC(=O)c1ccc(F)cc1 [CRL 40727, chlorhydratede N-(4-fluorophénacyl)-isopropylamine]","dose maximale non mortelle, DL-0",[1],> 128 mg/kg and < 256 mg/kg
same,effets de type sédatif: motilité et agressivité,[2],hypomotilité et diminution de l'agressivité
same,"effets de type sédatif: sédation, réactivité",[2],sédation et hyporéactivité
same,"effets de type sédatif: température, effets hypothermisants de l'apomorphine, l'oxotrémorine et la réserpine",[3],"hypothermie et potentialisation des effets hypothermisants de l'apomorphine, l'oxotrémorine et la réserpine"
same,stéréotypies amphétaminiques,[3],antagonisme modéré
same,minimal effective dose,"[4]; dog, i.v., successive doses 0,1 to 20 mg/kg, read-out: dose from which the débit fémoral increases",1 mg/kg
same,minimal effective dose,"[4]; dog, i.v., read-out: dose from which the pression artérielle diastolique decreases",10 mg/kg
same,minimal effective dose,"[4]; dog, i.v., read-out: dose from which the pression artérielle différentielle increases",5 mg/kg
same,minimal effective dose,"[4]; dog, i.v., read-out: dose from which the pression artérielle moyenne decreases",20 mg/kg
same,fréquence cardiaque,"[4]; dog, i.v.",n'est pas nettement modifiée
same,hypotension à l'isoprénaline,"[4]; dog, i.v.",n'est pas modifiée
same,fréquence cardiaque (tachycardie à l'isoprénaline),"[4]; dog, mean, after 10 mg/kg i.v., control 215",182 battements/min
same,pression artérielle,"[4]; one dog, supplementary dose of 40 mg/kg I.V.",hypotension plus importante qu'à la dose précédente
same,minimal effective dose,"[5]; Canis lupus familiaris, dog, intraduodenal, read-out: dose from which une action hypotensive appears",10 mg/kg
same,action hypotensive et vasodilatatrice,"[5]; another dog, 5 mg/kg I.V. at the end of the intraduodenal test",Le même résultat
same,hypotension à l'isoprénaline,"[5]; dog, intraduodenal",n'est pas modifiée
same,fréquence cardiaque (tachycardie à l'isoprénaline),"[5]; dog, mean, after 10 mg/kg intraduodenal, control 220",165 battements/min
same,action hypotensive et vasodilatatrice,"[5]; one dog, supplementary dose of 20 mg/kg I.D.","action hypotensive plus importante, sans effet vasodilatateur supplémentaire"
same,comportement de verticalisation et stéréotypies (apomorphine),[6],ne modifie pas
same,action hypothermisante de la forte dose d'apomorphine,"[6]; 0,5, 2 and above all 8 and 32 mg/kg i.p., 30 min before apomorphine 16 mg/kg s.c.",s'oppose nettement
same,résultats cliniques dans le domaine psychotrope en tant qu'agents sédatifs et antidépresseurs,[7]; clinic,bons résultats
same,résultats en tant qu'agents antidépresseurs chez l'homme,[7],excellents résultats
"CC(C)(C)NCC(O)c1ccccc1F (stereo not shown) [CRL 40827A, fumaratede 1-(2-fluorophényl)-2-tertiobutylamino-1-éthanol]",résultats en tant qu'agents antidépresseurs chez l'homme,[7],excellents résultats
"CC(C)(C)NCC(O)c1ccc(F)cc1 (stereo not shown) [CRL 40854, chlorhydratede 1-(4-fluorophényl)-2-tertiobutylamino-1-éthanol]",agressivité intergroupes / effet antiagressif,[8],diminue l'agressivité intergroupes
same,"dose maximale non mortelle, DL-0",[1],> 128 mg/kg and < 256 mg/kg
same,comportement de verticalisation et stéréotypies (apomorphine),[6],sans modifier
same,action hypothermisante de l'apomorphine,[6]; 16 and 64 mg/kg i.p.,s'oppose modérément
same,stéréotypies induites par l'apomorphine,[9],ne modifie pas
same,durée des stéréotypies amphétaminiques,[10],potentialise
same,ptôsis réserpinique,[11],gans modifier
same,hypothermie réserpinique,"[11]; 4, 16 and 64 mg/kg",antagonise modérément
same,signes de stimulation cholinergique périphérique (oxotrémorine),[12],ne modifie pas
same,tremblements provoqués par l'oxotrémorine,[12],ne modifie pas
same,effet hypothermisant de l'oxotrémorine,[12]; doses printed 'le et 64 mg/kg',aggrave
same,effets convulsivants de l'électrochoc,[13],ne modifie pas les effets convulsivants
same,incapacité motrice (traction),[13],ne provoque pas de déficit moteur majeur
same,nombre de passages punis (test des quatre plaques),[13],n'entraîne pas d'augmen- tion
same,motilité spontanée,[14],diminue modérément
same,activité motrice (souris habituée à son enceinte),[15],ne provoque pas de reprise nette
same,récupération motrice après anoxie hypobare,[16],n'entraîne pas d'amélioration
same,apparition des convulsions et mort (anoxie par curarisation),[17],ne modifie pas
"COc1cc(OC)c(C(=O)CCCN2CCCC2)c(OC)c1 [LL 1656, chlorhydratede (2,4,6-triméthoxyphényl)-(3-pyrrolidino-propyl)-cétone, reference compound]",débit fémoral,"[4]; one dog, 6 mg/kg I.V. after the CRL 40727 doses",n'augmente pas plus qu'avec la dose de 10 mg/kg de CRL 40727
same,vasodilatation,"[5]; 6 mg/kg i.v., injected after CRL 40727",n'entraîne pas de vasodilatation supplémentaire
